Measurements taken from the supplement of paper PMC10307832.

Experiments:
Test in all cases: relative viability (nuclei count vs DMSO), 5 days (fraction); higher = more cells survive
[1] = compound: C=CCn1c(=O)c2cnc(Nc3ccc(N4CCN(C)CC4)cc3)nc2n1-c1cccc(C(C)(C)O)n1 [Adavosertib] + CS(=O)(=O)N1CCN(Cc2cc3nc(-c4cccc5[nH]ncc45)nc(N4CCOCC4)c3s2)CC1 [Pictilisib] (partner 1 µM)
How it was run: (§1)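 Nuclei were stained with Hoechst during a one-step fixation (final 0.05% Triton X-100, 1% formaldehyde, 1 ug/ml Hoechst) carried out 5 days after dosing, then counted on 4× images. The cells, lung cancer lines in 1536-well plates, had been dosed by pin tool the day after seeding with one drug alone or a fixed anchor-drug dose plus five library-drug doses (not always all listed) in √10 steps. Relative viability is the nuclei count in treated wells divided by that in vehicle wells, and each value is the median of duplicate plates.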

[2] = compound: C=CCn1c(=O)c2cnc(Nc3ccc(N4CCN(C)CC4)cc3)nc2n1-c1cccc(C(C)(C)O)n1 [Adavosertib] + CC(C)C[C@H](NC(=O)[C@H](Cc1ccccc1)NC(=O)c1cnccn1)B(O)O [Bortezomib] (partner 0.002 µM)
How it was run: as §1

[3] = compound: COc1nc(N)nc2c1ncn2[C@@H]1O[C@H](CO)[C@@H](O)[C@@H]1O [Nelarabine] + Cc1nc(Nc2ncc(C(=O)Nc3c(C)cccc3Cl)s2)cc(N2CCN(CCO)CC2)n1 [Dasatinib] (partner 0.075 µM)
How it was run: as §1

[4] = compound: C=CCn1c(=O)c2cnc(Nc3ccc(N4CCN(C)CC4)cc3)nc2n1-c1cccc(C(C)(C)O)n1 [Adavosertib] + O=C(c1cc(Cc2n[nH]c(=O)c3ccccc23)ccc1F)N1CCN(C(=O)C2CC2)CC1 [Olaparib] (partner 8 µM)
How it was run: as §1

LCLC-97TM1
relative viability ([1]; first compound 0.03162 µM): 0.146
relative viability ([1]; first compound 0.1 µM): 0.223
relative viability ([1]; first compound 0.3162 µM): 0.167
relative viability ([2]; first compound 0.01 µM): 0.284
relative viability ([2]; first compound 0.03162 µM): 0.635
relative viability ([2]; first compound 0.1 µM): 0.577
relative viability ([2]; first compound 0.3162 µM): 0.233
relative viability ([3]; first compound 0.01 µM): 1.03
relative viability ([3]; first compound 0.03162 µM): 0.506
relative viability ([3]; first compound 0.1 µM): 0.779
relative viability ([3]; first compound 0.3162 µM): 0.95
relative viability ([3]; first compound 1 µM): 0.806
relative viability ([4]; first compound 0.01 µM): 0.412
relative viability ([4]; first compound 0.03162 µM): 0.369
relative viability ([4]; first compound 0.1 µM): 0.439
relative viability ([4]; first compound 0.3162 µM): 0.303

LCLC-103H
relative viability ([1]; first compound 0.01 µM): 0.544
relative viability ([1]; first compound 0.03162 µM): 0.517
relative viability ([1]; first compound 0.1 µM): 0.561
relative viability ([1]; first compound 0.3162 µM): 0.516
relative viability ([2]; first compound 0.01 µM): 1.03
relative viability ([2]; first compound 0.03162 µM): 1.1
relative viability ([2]; first compound 0.1 µM): 1.05
relative viability ([2]; first compound 0.3162 µM): 1.08
relative viability ([3]; first compound 0.01 µM): 0.458
relative viability ([3]; first compound 0.03162 µM): 0.45
relative viability ([3]; first compound 0.1 µM): 0.342
relative viability ([3]; first compound 0.3162 µM): 0.499
relative viability ([3]; first compound 1 µM): 0.471
relative viability ([4]; first compound 0.01 µM): 0.797
relative viability ([4]; first compound 0.03162 µM): 0.769
relative viability ([4]; first compound 0.1 µM): 0.761
relative viability ([4]; first compound 0.3162 µM): 0.742

LOU-NH91
relative viability ([1]; first compound 0.01 µM): 0.521
relative viability ([1]; first compound 0.03162 µM): 0.508
relative viability ([1]; first compound 0.1 µM): 0.544
relative viability ([1]; first compound 0.3162 µM): 0.457
relative viability ([2]; first compound 0.01 µM): 0.484
relative viability ([2]; first compound 0.03162 µM): 0.502
relative viability ([2]; first compound 0.1 µM): 0.502
relative viability ([2]; first compound 0.3162 µM): 0.489
relative viability ([3]; first compound 0.01 µM): 0.628
relative viability ([3]; first compound 0.03162 µM): 0.591
relative viability ([3]; first compound 0.1 µM): 0.436
relative viability ([3]; first compound 0.3162 µM): 0.585
relative viability ([3]; first compound 1 µM): 0.605
relative viability ([4]; first compound 0.01 µM): 0.857
relative viability ([4]; first compound 0.03162 µM): 0.917
relative viability ([4]; first compound 0.1 µM): 0.946
relative viability ([4]; first compound 0.3162 µM): 0.928

LU99A
relative viability ([1]; first compound 0.01 µM): 0.341
relative viability ([1]; first compound 0.03162 µM): 0.303
relative viability ([1]; first compound 0.1 µM): 0.354
relative viability ([1]; first compound 0.3162 µM): 0.241
relative viability ([2]; first compound 0.01 µM): 1.34
relative viability ([2]; first compound 0.03162 µM): 0.998
relative viability ([2]; first compound 0.1 µM): 1.09
relative viability ([2]; first compound 0.3162 µM): 0.827
relative viability ([3]; first compound 0.01 µM): 0.522
relative viability ([3]; first compound 0.03162 µM): 0.506
relative viability ([3]; first compound 0.1 µM): 0.36
relative viability ([3]; first compound 0.3162 µM): 0.51
relative viability ([3]; first compound 1 µM): 0.797
relative viability ([4]; first compound 0.01 µM): 0.238
relative viability ([4]; first compound 0.03162 µM): 0.224
relative viability ([4]; first compound 0.1 µM): 0.209
relative viability ([4]; first compound 0.3162 µM): 0.179

LXF-289
relative viability ([1]; first compound 0.01 µM): 0.786
relative viability ([1]; first compound 0.03162 µM): 0.746
relative viability ([1]; first compound 0.1 µM): 0.782
relative viability ([1]; first compound 0.3162 µM): 0.788
relative viability ([2]; first compound 0.01 µM): 0.959
relative viability ([2]; first compound 0.03162 µM): 0.948
relative viability ([2]; first compound 0.1 µM): 0.999
relative viability ([2]; first compound 0.3162 µM): 0.999
relative viability ([3]; first compound 0.01 µM): 0.156
relative viability ([3]; first compound 0.03162 µM): 0.218
relative viability ([3]; first compound 0.1 µM): 0.146
relative viability ([3]; first compound 0.3162 µM): 0.202
relative viability ([3]; first compound 1 µM): 0.196
relative viability ([4]; first compound 0.01 µM): 1.1
relative viability ([4]; first compound 0.03162 µM): 1.06
relative viability ([4]; first compound 0.1 µM): 1.13
relative viability ([4]; first compound 0.3162 µM): 1.02

NCI-H23
relative viability ([1]; first compound 0.01 µM): 0.504
relative viability ([1]; first compound 0.03162 µM): 0.51
relative viability ([1]; first compound 0.1 µM): 0.49
relative viability ([1]; first compound 0.3162 µM): 0.236
relative viability ([2]; first compound 0.01 µM): 0.97
relative viability ([2]; first compound 0.03162 µM): 1.05
relative viability ([2]; first compound 0.1 µM): 0.844
relative viability ([2]; first compound 0.3162 µM): 0.327
relative viability ([3]; first compound 0.01 µM): 1.01
relative viability ([3]; first compound 0.03162 µM): 0.838
relative viability ([3]; first compound 0.1 µM): 0.588
relative viability ([3]; first compound 0.3162 µM): 0.927
relative viability ([3]; first compound 1 µM): 0.819
relative viability ([4]; first compound 0.01 µM): 0.339
relative viability ([4]; first compound 0.03162 µM): 0.317
relative viability ([4]; first compound 0.1 µM): 0.24
relative viability ([4]; first compound 0.3162 µM): 0.138

NCI-H322M
relative viability ([1]; first compound 0.03162 µM): 0.521
relative viability ([1]; first compound 0.1 µM): 0.504
relative viability ([1]; first compound 0.3162 µM): 0.421
relative viability ([2]; first compound 0.03162 µM): 1.17
relative viability ([2]; first compound 0.1 µM): 1.2
relative viability ([2]; first compound 0.3162 µM): 0.869
relative viability ([3]; first compound 0.01 µM): 0.268
relative viability ([3]; first compound 0.03162 µM): 0.252
relative viability ([3]; first compound 0.1 µM): 0.231
relative viability ([3]; first compound 0.3162 µM): 0.273
relative viability ([3]; first compound 1 µM): 0.246
relative viability ([4]; first compound 0.01 µM): 0.771
relative viability ([4]; first compound 0.03162 µM): 0.801
relative viability ([4]; first compound 0.1 µM): 0.699
relative viability ([4]; first compound 0.3162 µM): 0.425

NCI-H441
relative viability ([1]; first compound 0.01 µM): 0.561
relative viability ([1]; first compound 0.03162 µM): 0.497
relative viability ([1]; first compound 0.1 µM): 0.378
relative viability ([1]; first compound 0.3162 µM): 0.33
relative viability ([2]; first compound 0.01 µM): 0.38
relative viability ([2]; first compound 0.03162 µM): 0.761
relative viability ([2]; first compound 0.1 µM): 0.414
relative viability ([2]; first compound 0.3162 µM): 0.354
relative viability ([3]; first compound 0.01 µM): 0.598
relative viability ([3]; first compound 0.03162 µM): 0.516
relative viability ([3]; first compound 0.1 µM): 0.43
relative viability ([3]; first compound 0.3162 µM): 0.596
relative viability ([3]; first compound 1 µM): 0.784
relative viability ([4]; first compound 0.01 µM): 0.533
relative viability ([4]; first compound 0.03162 µM): 0.477
relative viability ([4]; first compound 0.1 µM): 0.577
relative viability ([4]; first compound 0.3162 µM): 0.462

NCI-H460
relative viability ([1]; first compound 0.01 µM): 0.315
relative viability ([1]; first compound 0.03162 µM): 0.355
relative viability ([1]; first compound 0.1 µM): 0.289
relative viability ([1]; first compound 0.3162 µM): 0.417
relative viability ([2]; first compound 0.01 µM): 1.14
relative viability ([2]; first compound 0.03162 µM): 0.966
relative viability ([2]; first compound 0.1 µM): 1.22
relative viability ([2]; first compound 0.3162 µM): 0.966
relative viability ([3]; first compound 0.01 µM): 0.66
relative viability ([3]; first compound 0.03162 µM): 0.601
relative viability ([3]; first compound 0.1 µM): 0.452
relative viability ([3]; first compound 0.3162 µM): 0.64
relative viability ([3]; first compound 1 µM): 0.495
relative viability ([4]; first compound 0.01 µM): 0.391
relative viability ([4]; first compound 0.03162 µM): 0.376
relative viability ([4]; first compound 0.1 µM): 0.308
relative viability ([4]; first compound 0.3162 µM): 0.405

NCI-H520
relative viability ([1]; first compound 0.01 µM): 0.288
relative viability ([1]; first compound 0.03162 µM): 0.286
relative viability ([1]; first compound 0.1 µM): 0.381
relative viability ([1]; first compound 0.3162 µM): 0.269
relative viability ([2]; first compound 0.01 µM): 0.708
relative viability ([2]; first compound 0.03162 µM): 0.803
relative viability ([2]; first compound 0.1 µM): 0.553
relative viability ([2]; first compound 0.3162 µM): 0.535
relative viability ([3]; first compound 0.01 µM): 0.245
relative viability ([3]; first compound 0.03162 µM): 0.22
relative viability ([3]; first compound 0.1 µM): 0.2
relative viability ([3]; first compound 0.3162 µM): 0.214
relative viability ([3]; first compound 1 µM): 0.207
relative viability ([4]; first compound 0.01 µM): 0.345
relative viability ([4]; first compound 0.03162 µM): 0.332
relative viability ([4]; first compound 0.1 µM): 0.308
relative viability ([4]; first compound 0.3162 µM): 0.332
